{"source": "patent US6355799B1", "about": "“Substituted benzene compounds, process for their preparation, and herbicidal and defoliant compositions containing them” (ISK Americas Incorporated, priority 1997, dated 2002)", "assay_type_in_all_cases": "in vivo", "key": {"[1]": {"tested_on": "redroot pigweed (Amaranthus retroflexus, AMARE)", "test": "Pre-emerge test, greenhouse herbicide activity screening", "conditions": "rating scale 0-100, 14 days after application", "procedure,_shortened": "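Compounds in acetone were track-sprayed at 15-1000 g ai/ha (187 l/ha) on sandy loam pots: pre-emerge one day after seeding, post-emerge at 2-3 leaf stage with 0.25% v/v non-ionic surfactant. Phytotoxicity was rated 14 days later on a 0 (no damage) to 100 (complete death) scale.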"}, "[2]": {"tested_on": "barnyardgrass (Echinochloa crus-galli, ECHCG)", "test": "Pre-emerge test, greenhouse herbicide activity screening", "conditions": "rating scale 0-100, 14 days after application", "procedure,_shortened": "(§1)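 Fourteen days after spraying, crop and weed injury was graded visually from 0, no effect, to 100, every plant dead. Test substances were dissolved in acetone and applied at 15–1000 g ai/ha with a flat-fan nozzle. Application was either pre-emergence, one day after sowing, or post-emergence at the 2–3 leaf stage.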"}, "[3]": {"tested_on": "green foxtail (Setaria viridis, SETVI)", "test": "Pre-emerge test, greenhouse herbicide activity screening", "conditions": "rating scale 0-100, 14 days after application", "procedure,_shortened": "as §1"}, "[4]": {"tested_on": "ivyleaf morningglory (Ipomoea hederacea, IPOHE)", "test": "Pre-emerge test, greenhouse herbicide activity screening", "conditions": "rating scale 0-100, 14 days after application", "procedure,_shortened": "as §1"}, "[5]": {"tested_on": "johnsongrass (Sorghum halepense, SORHA)", "test": "Pre-emerge test, greenhouse herbicide activity screening", "conditions": "rating scale 0-100, 14 days after application", "procedure,_shortened": "as §1"}, "[6]": {"tested_on": "lambsquarters (Chenopodium album, CHEAL)", "test": "Pre-emerge test, greenhouse herbicide activity screening", "conditions": "rating scale 0-100, 14 days after application", "procedure,_shortened": "as §1"}, "[7]": {"tested_on": "large crabgrass (Digitaria sanguinalis, DIGSA)", "test": "Pre-emerge test, greenhouse herbicide activity screening", "conditions": "rating scale 0-100, 14 days after application", "procedure,_shortened": "as §1"}, "[8]": {"tested_on": "sicklepod (Cassia obtusifolia, CASOB)", "test": "Pre-emerge test, greenhouse herbicide activity screening", "conditions": "rating scale 0-100, 14 days after application", "procedure,_shortened": "as §1"}, "[9]": {"tested_on": "velvetleaf (Abutilon theophrasti, ABUTH)", "test": "Pre-emerge test, greenhouse herbicide activity screening", "conditions": "rating scale 0-100, 14 days after application", "procedure,_shortened": "as §1"}, "[10]": {"tested_on": "field corn (Zea mays L., var. Dekalb 535, CORN)", "test": "Pre-emerge test, crop safety", "conditions": "rating scale 0-100, 14 days after application", "procedure,_shortened": "as §1"}, "[11]": {"tested_on": "upland rice (Oryza sp., var. Tebonnet, RICE)", "test": "Pre-emerge test, crop safety", "conditions": "rating scale 0-100, 14 days after application", "procedure,_shortened": "as §1"}, "[12]": {"tested_on": "barnyardgrass (Echinochloa crus-galli, ECHCG)", "test": "Post-emerge test, greenhouse herbicide activity screening", "conditions": "rating scale 0-100 (0 no damage, 100 complete death), 14 days after application", "procedure,_shortened": "(§2)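 Plants grown in 10 cm pots of sandy loam mix received acetone-dissolved compounds through a moving flat-fan nozzle. Doses ranged from 15 to 1000 g ai/ha. Pre-emerge pots were seeded one day earlier, post-emerge pots 8–21 days earlier. Fourteen days on, each pot was graded 0–100 for damage.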"}, "[13]": {"tested_on": "common ragweed (Ambrosia artemisizfolia L., AMBEL)", "test": "Post-emerge test, greenhouse herbicide activity screening", "conditions": "rating scale 0-100 (0 no damage, 100 complete death), 14 days after application", "procedure,_shortened": "as §2"}, "[14]": {"tested_on": "green foxtail (Setaria viridis, SETVI)", "test": "Post-emerge test, greenhouse herbicide activity screening", "conditions": "rating scale 0-100 (0 no damage, 100 complete death), 14 days after application", "procedure,_shortened": "as §2"}, "[15]": {"tested_on": "ivyleaf morningglory (Ipomoea hederacea, IPOHE)", "test": "Post-emerge test, greenhouse herbicide activity screening", "conditions": "rating scale 0-100 (0 no damage, 100 complete death), 14 days after application", "procedure,_shortened": "as §2"}, "[16]": {"tested_on": "johnsongrass (Sorghum halepense, SORHA)", "test": "Post-emerge test, greenhouse herbicide activity screening", "conditions": "rating scale 0-100 (0 no damage, 100 complete death), 14 days after application", "procedure,_shortened": "as §2"}, "[17]": {"tested_on": "lambsquarters (Chenopodium album, CHEAL)", "test": "Post-emerge test, greenhouse herbicide activity screening", "conditions": "rating scale 0-100 (0 no damage, 100 complete death), 14 days after application", "procedure,_shortened": "as §2"}, "[18]": {"tested_on": "large crabgrass (Digitaria sanguinalis, DIGSA)", "test": "Post-emerge test, greenhouse herbicide activity screening", "conditions": "rating scale 0-100 (0 no damage, 100 complete death), 14 days after application", "procedure,_shortened": "as §2"}, "[19]": {"tested_on": "redroot pigweed (Amaranthus retroflexus, AMARE)", "test": "Post-emerge test, greenhouse herbicide activity screening", "conditions": "rating scale 0-100 (0 no damage, 100 complete death), 14 days after application", "procedure,_shortened": "as §2"}, "[20]": {"tested_on": "sicklepod (Cassia obtusifolia, CASOB)", "test": "Post-emerge test, greenhouse herbicide activity screening", "conditions": "rating scale 0-100 (0 no damage, 100 complete death), 14 days after application", "procedure,_shortened": "as §2"}, "[21]": {"tested_on": "velvetleaf (Abutilon theophrasti, ABUTH)", "test": "Post-emerge test, greenhouse herbicide activity screening", "conditions": "rating scale 0-100 (0 no damage, 100 complete death), 14 days after application", "procedure,_shortened": "as §2"}, "[22]": {"tested_on": "field corn (Zea mays L., var. Dekalb 535, CORN)", "test": "Post-emerge test, crop safety", "conditions": "rating scale 0-100 (0 no damage, 100 complete death), 14 days after application", "procedure,_shortened": "as §1"}, "[23]": {"tested_on": "upland rice (Oryza sp., var. Tebonnet, RICE)", "test": "Post-emerge test, crop safety", "conditions": "rating scale 0-100 (0 no damage, 100 complete death), 14 days after application", "procedure,_shortened": "as §1"}}}
{"smiles": "COc1c(Cl)cc(F)c(-n2c(=O)cc(C(F)(F)F)n(C)c2=O)c1CC(Cl)C(=O)OCC(C)C", "note": "(single isomer, unassigned) [14-14]", "values": [{"measurement": "Pre-emerge herbicidal activity, phytotoxicity rating AMARE", "setting": "[1]; 63 g ai/ha", "result": 100}, {"measurement": "Pre-emerge herbicidal activity, phytotoxicity rating AMARE", "setting": "[1]; 250 g ai/ha", "result": 100}, {"measurement": "Pre-emerge herbicidal activity, phytotoxicity rating ECHCG", "setting": "[2]; 63 g ai/ha", "result": 0}, {"measurement": "Pre-emerge herbicidal activity, phytotoxicity rating ECHCG", "setting": "[2]; 250 g ai/ha", "result": 10}, {"measurement": "Pre-emerge herbicidal activity, phytotoxicity rating SETVI", "setting": "[3]; 63 g ai/ha", "result": 0}, {"measurement": "Pre-emerge herbicidal activity, phytotoxicity rating SETVI", "setting": "[3]; 250 g ai/ha", "result": 50}, {"measurement": "Pre-emerge herbicidal activity, phytotoxicity rating IPOHE", "setting": "[4]; 63 g ai/ha", "result": 0}, {"measurement": "Pre-emerge herbicidal activity, phytotoxicity rating IPOHE", "setting": "[4]; 250 g ai/ha", "result": 20}, {"measurement": "Pre-emerge herbicidal activity, phytotoxicity rating SORHA", "setting": "[5]; 63 g ai/ha", "result": 0}, {"measurement": "Pre-emerge herbicidal activity, phytotoxicity rating SORHA", "setting": "[5]; 250 g ai/ha", "result": 0}, {"measurement": "Pre-emerge herbicidal activity, phytotoxicity rating CHEAL", "setting": "[6]; 63 g ai/ha", "result": 60}, {"measurement": "Pre-emerge herbicidal activity, phytotoxicity rating CHEAL", "setting": "[6]; 250 g ai/ha", "result": 100}, {"measurement": "Pre-emerge herbicidal activity, phytotoxicity rating DIGSA", "setting": "[7]; 63 g ai/ha", "result": 50}, {"measurement": "Pre-emerge herbicidal activity, phytotoxicity rating DIGSA", "setting": "[7]; 250 g ai/ha", "result": 90}, {"measurement": "Pre-emerge herbicidal activity, phytotoxicity rating CASOB", "setting": "[8]; 63 g ai/ha", "result": 0}, {"measurement": "Pre-emerge herbicidal activity, phytotoxicity rating CASOB", "setting": "[8]; 250 g ai/ha", "result": 0}, {"measurement": "Pre-emerge herbicidal activity, phytotoxicity rating ABUTH", "setting": "[9]; 63 g ai/ha", "result": 0}, {"measurement": "Pre-emerge herbicidal activity, phytotoxicity rating ABUTH", "setting": "[9]; 250 g ai/ha", "result": 20}, {"measurement": "Pre-emerge phytotoxicity rating, crop damage CORN", "setting": "[10]; 63 g ai/ha", "result": 0}, {"measurement": "Pre-emerge phytotoxicity rating, crop damage CORN", "setting": "[10]; 250 g ai/ha", "result": 0}, {"measurement": "Pre-emerge phytotoxicity rating, crop damage RICE", "setting": "[11]; 63 g ai/ha", "result": 0}, {"measurement": "Pre-emerge phytotoxicity rating, crop damage RICE", "setting": "[11]; 250 g ai/ha", "result": 20}, {"measurement": "Post-emerge Herbicidal Activity, phytotoxicity rating ECHCG", "setting": "[12]; Rate 63 g ai/ha", "result": 100}, {"measurement": "Post-emerge Herbicidal Activity, phytotoxicity rating ECHCG", "setting": "[12]; Rate 250 g ai/ha", "result": 100}, {"measurement": "Post-emerge Herbicidal Activity, phytotoxicity rating AMBEL", "setting": "[13]; Rate 63 g ai/ha", "result": 70}, {"measurement": "Post-emerge Herbicidal Activity, phytotoxicity rating AMBEL", "setting": "[13]; Rate 250 g ai/ha", "result": 70}, {"measurement": "Post-emerge Herbicidal Activity, phytotoxicity rating SETVI", "setting": "[14]; Rate 63 g ai/ha", "result": 50}, {"measurement": "Post-emerge Herbicidal Activity, phytotoxicity rating SETVI", "setting": "[14]; Rate 250 g ai/ha", "result": 70}, {"measurement": "Post-emerge Herbicidal Activity, phytotoxicity rating IPOHE", "setting": "[15]; Rate 63 g ai/ha", "result": 30}, {"measurement": "Post-emerge Herbicidal Activity, phytotoxicity rating IPOHE", "setting": "[15]; Rate 250 g ai/ha", "result": 50}, {"measurement": "Post-emerge Herbicidal Activity, phytotoxicity rating SORHA", "setting": "[16]; Rate 63 g ai/ha", "result": 0}, {"measurement": "Post-emerge Herbicidal Activity, phytotoxicity rating SORHA", "setting": "[16]; Rate 250 g ai/ha", "result": 20}, {"measurement": "Post-emerge Herbicidal Activity, phytotoxicity rating CHEAL", "setting": "[17]; Rate 63 g ai/ha", "result": 50}, {"measurement": "Post-emerge Herbicidal Activity, phytotoxicity rating CHEAL", "setting": "[17]; Rate 250 g ai/ha", "result": 90}, {"measurement": "Post-emerge Herbicidal Activity, phytotoxicity rating DIGSA", "setting": "[18]; Rate 63 g ai/ha", "result": 90}, {"measurement": "Post-emerge Herbicidal Activity, phytotoxicity rating DIGSA", "setting": "[18]; Rate 250 g ai/ha", "result": 100}, {"measurement": "Post-emerge Herbicidal Activity, phytotoxicity rating AMARE", "setting": "[19]; Rate 63 g ai/ha", "result": 50}, {"measurement": "Post-emerge Herbicidal Activity, phytotoxicity rating AMARE", "setting": "[19]; Rate 250 g ai/ha", "result": 100}, {"measurement": "Post-emerge Herbicidal Activity, phytotoxicity rating CASOB", "setting": "[20]; Rate 63 g ai/ha", "result": 0}, {"measurement": "Post-emerge Herbicidal Activity, phytotoxicity rating CASOB", "setting": "[20]; Rate 250 g ai/ha", "result": 60}, {"measurement": "Post-emerge Herbicidal Activity, phytotoxicity rating ABUTH", "setting": "[21]; Rate 63 g ai/ha", "result": 50}, {"measurement": "Post-emerge Herbicidal Activity, phytotoxicity rating ABUTH", "setting": "[21]; Rate 250 g ai/ha", "result": 100}, {"measurement": "Post-emerge phytotoxicity rating CORN (crop damage)", "setting": "[22]; Rate 63 g ai/ha", "result": 10}, {"measurement": "Post-emerge phytotoxicity rating CORN (crop damage)", "setting": "[22]; Rate 250 g ai/ha", "result": 50}, {"measurement": "Post-emerge phytotoxicity rating RICE (crop damage)", "setting": "[23]; Rate 63 g ai/ha", "result": 0}, {"measurement": "Post-emerge phytotoxicity rating RICE (crop damage)", "setting": "[23]; Rate 250 g ai/ha", "result": 30}]}
